Our source for the Kb and IC50 values is US11453660B2, “Androgen receptor and glucocorticoid receptor modulators” (ONCOSTELLAE, S.L., priority 2017, dated 2022).

Assay [1] addresses T1, AR-Receptor (Homo sapiens, UniProt P10275).
T1 sequence (P10275 1-920 Q868H): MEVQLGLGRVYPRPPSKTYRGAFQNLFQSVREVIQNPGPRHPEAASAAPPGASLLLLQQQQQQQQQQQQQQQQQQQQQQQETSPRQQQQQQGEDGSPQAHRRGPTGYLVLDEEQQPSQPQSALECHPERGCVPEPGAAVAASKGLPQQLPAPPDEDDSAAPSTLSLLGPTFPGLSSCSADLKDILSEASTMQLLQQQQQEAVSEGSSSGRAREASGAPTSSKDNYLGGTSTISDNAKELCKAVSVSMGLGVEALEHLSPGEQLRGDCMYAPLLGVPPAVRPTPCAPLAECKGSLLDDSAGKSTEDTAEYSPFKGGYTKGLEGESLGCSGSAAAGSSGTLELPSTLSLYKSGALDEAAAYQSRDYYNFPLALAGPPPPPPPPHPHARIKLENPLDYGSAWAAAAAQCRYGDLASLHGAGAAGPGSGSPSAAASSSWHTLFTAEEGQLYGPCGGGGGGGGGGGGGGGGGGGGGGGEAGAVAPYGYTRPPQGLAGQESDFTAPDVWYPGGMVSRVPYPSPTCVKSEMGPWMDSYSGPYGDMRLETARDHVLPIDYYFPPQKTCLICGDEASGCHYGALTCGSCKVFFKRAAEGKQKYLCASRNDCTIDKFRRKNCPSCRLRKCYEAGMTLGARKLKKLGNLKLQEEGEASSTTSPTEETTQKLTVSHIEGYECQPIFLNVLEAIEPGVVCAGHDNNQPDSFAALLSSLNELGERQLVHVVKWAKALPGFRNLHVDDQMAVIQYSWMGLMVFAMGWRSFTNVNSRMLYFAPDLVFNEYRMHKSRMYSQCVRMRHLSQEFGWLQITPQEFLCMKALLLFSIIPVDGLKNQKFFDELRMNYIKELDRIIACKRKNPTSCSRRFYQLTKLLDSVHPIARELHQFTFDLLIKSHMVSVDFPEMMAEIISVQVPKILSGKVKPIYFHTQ
The assay is described as follows: Functional Assay AR-Receptor (MDA-MB-453 cells, luciferase). Type of assay: cell-based. The note with it: antagonist effect in the presence of DHT 1 nM, 24 h, luciferase luminescence, read-out: AR antag KB. On the procedure: Functional Assay AR-Receptor
MDA-MB-453 cells were cultured in DMEM (ATCC, ref 30-2002), 10% FBS, 1% penicillin, 1% streptomycin, 75 μg/ml gentamycin.
The day before performing assay, the cells were trypsinized and seeded in a 384-well plate (Greiner, ref 781098) (8000 cells/well) in 50 μl of complete culture medium. Cells were stores at 37° C. in a 5% CO2 atmosphere overnight.
The medium was replaced by 50 μl complete growth medium with 0.1% FBS. Compounds were dispensed with Echo 550 (Labcyte) and incubated for 24 h at 37° C. in a 5% CO2 atmosphere. Antagonist effect was measured in the presence of DHT 1 nM.
After incubation, assay medium removed and 20 μl of 1× Promega lysis buffer were added to each well. The plate was incubated 15 minutes at RT and quick-frozen to −80° C. and the thaw to room temperature. 50 μl of luciferase substrate (E4550, Promega) were added to each well and luminescence (integration time 1000 msec) was read in an EnSpire multilabel reader (Perkin Elmer).

Assay [2] concerns the target T2, Rat Androgen Receptor (Rattus norvegicus, UniProt P15207).
T2 construct: purchased Life Technologies A15880
T2 sequence (P15207 646-902 limits assumed): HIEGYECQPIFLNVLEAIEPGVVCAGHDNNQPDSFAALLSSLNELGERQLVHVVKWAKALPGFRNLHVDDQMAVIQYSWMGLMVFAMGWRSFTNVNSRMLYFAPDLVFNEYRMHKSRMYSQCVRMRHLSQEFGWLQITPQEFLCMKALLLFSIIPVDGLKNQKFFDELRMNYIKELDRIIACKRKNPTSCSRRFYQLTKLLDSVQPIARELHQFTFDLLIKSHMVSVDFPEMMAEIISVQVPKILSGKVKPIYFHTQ
The assay can be described thus: Rat Androgen Receptor Binding (polarscreen AR competitor assay, fluorescence polarization). The note with it: displacement of Fluormone AL Green, 4 hours at RT, read-out: AR rat-fluorimetric. The method in brief:
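Fluorescence-polarization competition of Fluormone AL Green binding to rat androgen receptor; compounds screened in duplicate at 1 and 10 μM, 4 h at RT, read at λexc 485/λem 535 nm. IC50 from 1:10 dilution series, 10 μM to 0.1 nM, in 1× buffer.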

In assay [3] the target is T3, human androgen receptor (Homo sapiens, UniProt P10275, T878A).
T3 construct: endogenously expressed human androgen receptor using the LnCap prostate cancer cell line; endogenous in cells; host or cells: LNCaP prostate cancer cell line (whole cells)
T3 sequence (P10275 1-920 T878A): T1 sequence (P10275 1-920 Q868H) with H868Q, T878A
The assay is described as follows: Human Androgen Receptor Binding (radioligand binding, LnCap prostate cancer cell line). The note with it: LnCap cells, displacement of [^3H]-methyltrienolone, 2 hours at 37° C.; read-out: AR LNCaP. The method in brief: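 Whole-cell displacement of [3H]-methyltrienolone from endogenous AR (T878A) in LnCap cells, in RPMI with 0.1% BSA and triamcinolone acetonide. Compounds 10 μM to 0.1 nM in 1:10 steps, 2 h at 37 °C; cells washed, SDS-lysed, bound radioactivity by scintillation counting for IC50.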

Assay [4] concerns the target T4, Human Glucocorticoid Receptor (Homo sapiens, UniProt P04150).
T4 construct: endogenous in cells; host or cells: cytosol from IM-9 cell line
T4 sequence (P04150 1-777): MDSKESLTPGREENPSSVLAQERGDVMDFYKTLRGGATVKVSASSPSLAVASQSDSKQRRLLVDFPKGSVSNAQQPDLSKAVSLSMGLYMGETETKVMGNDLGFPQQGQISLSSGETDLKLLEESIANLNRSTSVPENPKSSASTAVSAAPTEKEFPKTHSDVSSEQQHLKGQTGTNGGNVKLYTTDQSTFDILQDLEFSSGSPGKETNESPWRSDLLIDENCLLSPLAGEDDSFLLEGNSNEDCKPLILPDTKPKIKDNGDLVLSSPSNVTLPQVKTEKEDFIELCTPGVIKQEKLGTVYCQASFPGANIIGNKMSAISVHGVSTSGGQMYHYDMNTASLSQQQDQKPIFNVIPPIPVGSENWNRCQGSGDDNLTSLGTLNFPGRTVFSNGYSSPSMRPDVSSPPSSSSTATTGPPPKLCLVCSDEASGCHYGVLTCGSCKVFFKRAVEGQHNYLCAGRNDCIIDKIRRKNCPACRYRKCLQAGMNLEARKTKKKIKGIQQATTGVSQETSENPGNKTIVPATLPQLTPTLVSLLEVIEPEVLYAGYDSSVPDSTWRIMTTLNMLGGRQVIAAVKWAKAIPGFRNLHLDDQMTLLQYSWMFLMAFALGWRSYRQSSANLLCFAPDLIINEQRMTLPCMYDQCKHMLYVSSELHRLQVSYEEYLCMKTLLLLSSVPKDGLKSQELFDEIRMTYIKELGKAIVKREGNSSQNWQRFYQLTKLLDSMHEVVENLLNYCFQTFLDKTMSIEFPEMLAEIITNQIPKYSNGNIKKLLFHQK
The assay can be described thus: Competition Binding in IM-9 Human Glucocorticoid Receptor (GR IM-9). The note with it: cytosol from IM-9 cell line, 1.5 nM [3H]-Dexamethasone, 4° C. for 6 hours. The method in brief: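 Radioligand competition using 100 μg IM-9 cell cytosol and 1.5 nM [3H]-dexamethasone, incubated 6 h at 4° C in TES/molybdate buffer, pH 7.4. Filtration on PEI-treated GF/B filters, scintillation counting; nonspecific binding defined with 10 μM triamcinolone.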

Residue numbers refer to the chain shown, from its start. pIC50: −log10 of the molar value.

What is called Kb is the equilibrium dissociation constant of an antagonist, usually derived from a functional assay. As to `CC(=O)C1=C(C)NC(C)=C(C(=O)OCc2ccncc2)C1c1csc2ccc(Cl)cc12` (stereo not drawn) [Example C62, Pyridin-4-ylmethyl 5-acetyl-4-(5-chlorobenzo[b]thiophen-3-yl)-2,6-dimethyl-1,4-dihydropyridine-3-carboxylate], the Kb in assay [1] was 100 to 1000 nM.

Consider `CC(=O)C1=C(C)NC(C)=C(C(=O)OCc2ccc(-c3ccncc3)nc2)C1c1csc2ncccc12` (stereo not drawn) [Example L9, [2,4′-bipyridin]-5-ylmethyl 5-acetyl-2,6-dimethyl-4-(thieno[2,3-b]pyridin-3-yl)-1,4-dihydropyridine-3-carboxylate], for which the Kb in assay [1] lay within 100 to 1000 nM.

In the case of `COC(=O)C1=C(C(F)(F)F)NC(C)=C(C(C)=O)C1c1csc2ccccc12` (stereo not drawn) [Example C14, Methyl 5-acetyl-4-(benzo[b]thiophen-3-yl)-6-methyl-2-(trifluoromethyl)-1,4-dihydropyridine-3-carboxylate], the pIC50 in assay [2] is 6.00 to 7.00; in assay [3], over 7.00; in assay [4] it was 6.00 to 7.00.

As for `COC(=O)C1=C(N)NC(C)=C(C(C)=O)C1c1csc2ccccc12` (stereo not drawn) [Example D1, Methyl 5-acetyl-2-amino-4-(benzo[b]thiophen-3-yl)-6-methyl-1,4-dihydropyridine-3-carboxylate], the values for the pIC50 in assay [2], in assay [3] and in assay [4] were over 7.00, 6.00 to 7.00 and at most 6.00, respectively.

On to `CC(=O)C1=C(C)NC(C)=C(C(=O)OCC2CC2)C1c1csc2ccccc12` (stereo not drawn) [Example C6, Cyclopropylmethyl 5-acetyl-4-(benzo[b]thiophen-3-yl)-2,6-dimethyl-1,4-dihydropyridine-3-carboxylate], for which the pIC50 is 6.00 to 7.00 in assay [2], 6.00 to 7.00 in assay [3] and over 7.00 in assay [4].

As for `CC(=O)C1=C(C)NC(C)=C(C(=O)OCc2cccnc2)C1c1csc2ccc(Cl)cc12` (stereo not drawn) [Example C60, Pyridin-3-ylmethyl 5-acetyl-4-(5-chlorobenzo[b]thiophen-3-yl)-2,6-dimethyl-1,4-dihydropyridine-3-carboxylate], the Kb in assay [1] lay in the range of 100 to 1000 nM.

As to `CC(=O)C1=C(C)NC(C)=C(C(C)=O)C1c1csc2ncccc12` [Example H15, 1,1′-(2,6-Dimethyl-4-(thieno[2,3-b]pyridin-3-yl)-1,4-dihydropyridine-3,5-diyl)bis(ethan-1-one)], the pIC50 was over 7.00 in assay [2] and 6.00 to 7.00 in assay [3].

For the compound “Benzyl 5-acetyl-4-(7-(methoxycarbonyl)benzo[b]thiophen-3-yl)-2,6-dimethyl-1,4-dihydropyridine-3-carboxylate [Example J38]”, in assay [1], the Kb lay in the range of 100 to 1000 nM.

As to `COC(=O)C1=C(CF)NC(C)=C(C(C)=O)C1c1csc2ccccc12` (stereo not drawn) [Example C20, Methyl 5-acetyl-4-(benzo[b]thiophen-3-yl)-2-(fluoromethyl)-6-methyl-1,4-dihydropyridine-3-carboxylate], the pIC50 in assay [2] and in assay [3] was 6.00 to 7.00 in each case.

As for `CC1=C(C#N)C(c2csc3ccccc23)C(C#N)=C(C)N1` [Example E1, 4-(Benzo[b]thiophen-3-yl)-2,6-dimethyl-1,4-dihydropyridine-3,5-dicarbonitrile], the pIC50 in assay [2] and in assay [3] was over 7.00 each time.

Regarding `COC(=O)C1=C(C2CC2)NC(C)=C(C(C)=O)C1c1csc2ccc(F)cc12` (stereo not drawn) [Example J22, Methyl 5-acetyl-2-cyclopropyl-4-(5-fluorobenzo[b]thiophen-3-yl)-6-methyl-1,4-dihydropyridine-3-carboxylate], the pIC50 in assay [2], in assay [3] and in assay [4] was over 7.00 in each case.

For `COC(=O)C1=C(C)NC(C)=C(C(C)=O)C1c1csc2ncccc12` (stereo not drawn) [Example J21, Methyl 5-acetyl-2,6-dimethyl-4-(thieno[2,3-b]pyridin-3-yl)-1,4-dihydropyridine-3-carboxylate], the pIC50 in assay [2] and in assay [3] was over 7.00 throughout.
